Paper PMC9894920, “Development of an improved and specific inhibitor of NADPH oxidase 2 to treat traumatic brain injury” (Redox Biology, 2023)
Values after ≈ are worked out from the molar mass of the structure shown. Where two headings read alike, the source gives them in different places.

Key:
[1] = target: T1, NOX2 (Homo sapiens, UniProt P04839); experiment: NOX2 activity in primary human granulocytes (PMN), luminol chemiluminescence; format: cell-based; set-up: When tested against NOX2 in primary human neutrophils; endogenous in cells; host or cells: primary human granulocytes (PMN) from donor blood; conditions: mean ± SD, n in cell; read-out: NOX-2 IC50 from PMN
T1 sequence (P04839 2-570 limits assumed): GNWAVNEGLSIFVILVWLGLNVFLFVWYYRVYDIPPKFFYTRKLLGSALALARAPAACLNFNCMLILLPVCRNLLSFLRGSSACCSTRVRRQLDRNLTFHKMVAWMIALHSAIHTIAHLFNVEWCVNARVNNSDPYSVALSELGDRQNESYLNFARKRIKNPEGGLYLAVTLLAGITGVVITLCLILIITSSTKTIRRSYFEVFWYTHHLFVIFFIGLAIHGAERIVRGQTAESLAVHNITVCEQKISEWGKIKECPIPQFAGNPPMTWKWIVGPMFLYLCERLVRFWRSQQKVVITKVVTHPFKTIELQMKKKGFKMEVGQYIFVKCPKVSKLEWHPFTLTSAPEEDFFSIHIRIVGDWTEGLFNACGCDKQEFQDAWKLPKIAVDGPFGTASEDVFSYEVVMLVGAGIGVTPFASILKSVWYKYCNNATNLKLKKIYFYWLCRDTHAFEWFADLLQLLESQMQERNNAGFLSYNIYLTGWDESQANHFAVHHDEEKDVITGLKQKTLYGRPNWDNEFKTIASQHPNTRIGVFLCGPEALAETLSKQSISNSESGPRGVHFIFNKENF
T1 sequence (P13498 2-195 partner limits assumed): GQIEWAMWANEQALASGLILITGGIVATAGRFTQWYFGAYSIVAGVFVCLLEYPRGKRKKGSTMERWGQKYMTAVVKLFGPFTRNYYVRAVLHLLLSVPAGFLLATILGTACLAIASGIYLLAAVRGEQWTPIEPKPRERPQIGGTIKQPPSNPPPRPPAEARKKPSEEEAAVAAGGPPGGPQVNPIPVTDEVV
Method: Human blood was obtained after informed consent by the Department of Transfusion Medicine (NIH Clinical Center) and provided as de-identified specimens. Human granulocytes were isolated using Percoll density fractionation as described and NOX2 activity was assessed in white polypropylene flat bottom 96 well plates following 15 min of preincubation at 37 °C with compounds or vehicle controls using 50 μM luminol as a chemiluminescence enhancer in an assay volume of 100 μl RPMI1640 with 1.1 × 10^5 cells/well in Varioskan Lux luminometer for 30 cycles of 1 s per well (approximately 1 h).

[2] = Aqueous kinetic solubility in PBS buffer; format: physicochemical
Method: (§1) The rat liver microsomal stability, parallel artificial membrane permeability assay (PAMPA), and aqueous kinetic solubility assay in phosphate-buffered saline (PBS) buffer were performed as described in the indicated references.

[3] = target: T2, Bovine Xanthine Oxidase (Bos taurus, UniProt P80457); experiment: Xanthine oxidase / hypoxanthine luminol chemiluminescence assay; format: biochemical; conditions: xanthine oxidase with hypoxanthine; mean ± SD, n in cell; read-out: X/XO IC50
T2 construct: purchased Sigma
Method: Bovine Xanthine Oxidase (Sigma) was dialyzed in PBS to remove ammonium sulfate and stored at 4 °C. Hypoxanthine was prepared by heating in DMSO. Reactions were prepared by diluting xanthine oxidase in HBSS (final concentration 1.25 mU/mL) that contained 50 μM luminol and were preincubated 5 min with control or inhibitor before the addition of hypoxanthine at a final concentration of 0.5 mM. Luminescence was measured at 24 °C as described above.

[4] = Parallel artificial membrane permeability assay (PAMPA); format: in vitro ADME; conditions: for Papp: pH 7.4, PAMPA, pH7.4, read-out: Permeability(pH7.4) (PAMPA_Pion_Lipid 1e-6 cm/s)
Method: as §1

[5] = Rat liver microsomal stability; format: in vitro ADME; conditions: for half-life: SD, rat, liver microsomes, read-out: Rat_SD/Microsomes t1/2 (m)
Method: as §1

[6] = aqueous buffer, kinetic from dmso stock, read-out: Solubility

T2 sequence (P80457 whole entry): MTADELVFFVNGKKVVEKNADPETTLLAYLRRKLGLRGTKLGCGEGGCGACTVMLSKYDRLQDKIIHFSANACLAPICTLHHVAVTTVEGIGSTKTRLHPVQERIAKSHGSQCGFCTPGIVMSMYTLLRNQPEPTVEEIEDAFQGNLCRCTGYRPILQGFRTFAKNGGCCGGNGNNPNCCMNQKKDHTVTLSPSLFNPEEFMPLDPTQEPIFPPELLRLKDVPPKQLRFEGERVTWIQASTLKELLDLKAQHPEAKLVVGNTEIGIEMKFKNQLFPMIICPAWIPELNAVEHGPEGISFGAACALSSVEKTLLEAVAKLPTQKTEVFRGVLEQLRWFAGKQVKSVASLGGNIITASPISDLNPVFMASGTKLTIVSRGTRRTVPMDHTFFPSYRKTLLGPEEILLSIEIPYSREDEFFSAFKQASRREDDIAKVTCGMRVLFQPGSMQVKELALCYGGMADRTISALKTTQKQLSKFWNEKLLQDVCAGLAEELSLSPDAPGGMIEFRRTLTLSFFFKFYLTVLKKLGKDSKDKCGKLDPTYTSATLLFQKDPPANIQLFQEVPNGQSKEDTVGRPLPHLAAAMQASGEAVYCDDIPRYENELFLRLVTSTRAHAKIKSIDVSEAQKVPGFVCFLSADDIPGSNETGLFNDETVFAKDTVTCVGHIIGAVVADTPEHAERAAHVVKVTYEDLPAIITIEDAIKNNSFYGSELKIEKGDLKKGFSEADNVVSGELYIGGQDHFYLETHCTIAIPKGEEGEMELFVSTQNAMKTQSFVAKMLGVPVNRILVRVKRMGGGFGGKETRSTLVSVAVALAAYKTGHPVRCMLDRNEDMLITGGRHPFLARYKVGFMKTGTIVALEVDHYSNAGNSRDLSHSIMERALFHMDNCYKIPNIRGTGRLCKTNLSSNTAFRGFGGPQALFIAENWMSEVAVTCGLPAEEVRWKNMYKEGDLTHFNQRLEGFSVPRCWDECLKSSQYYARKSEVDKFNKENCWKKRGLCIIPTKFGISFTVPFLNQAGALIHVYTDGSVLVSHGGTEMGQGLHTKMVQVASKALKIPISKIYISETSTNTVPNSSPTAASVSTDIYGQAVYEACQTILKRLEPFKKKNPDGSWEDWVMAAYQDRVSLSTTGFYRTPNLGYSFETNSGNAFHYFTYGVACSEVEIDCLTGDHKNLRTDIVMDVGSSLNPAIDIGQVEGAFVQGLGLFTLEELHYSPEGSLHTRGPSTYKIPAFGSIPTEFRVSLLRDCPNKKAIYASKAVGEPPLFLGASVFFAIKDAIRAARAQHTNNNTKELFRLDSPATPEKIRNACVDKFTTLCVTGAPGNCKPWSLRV

Compound | IC50 [1] [nM] | solubility [2, 6] [µg/mL] | IC50 [3] [nM] | Papp [4] [×10⁻⁶ cm/s] | half-life [5] [min] | solubility [2] [µg/mL] | Permeability(pH7.4) (PAMPA_Pion_Lipid 1e-6 cm/s) [4] | Rat_SD/Microsomes t1/2 (m) [5] [m]
CC(n1cc(-c2ccc3ccn(C)c3c2)c2c(N[S+](=O)([O-])c3ccn(C)n3)ccnc21)C(F)(F)F (stereo not shown) [NCGC00600714, CC(N1C=C(C2=C(N[S+]([O-])(=O)C3=NN(C)C=C3)C=CN=C12)C4=CC5=C(C=CN5C)C=C4)C(F)(F)F] | 328 | < 1 | 4700 | 479 | 7.7 | – | – | –
CCn1cc(-c2ccc3c(c2)N(C2CC2)CC3)c2c(N[S+](=O)([O-])c3ccn(C)n3)ccnc21 [NCGC00650067, CCN1C=C(C2=C(N[S+]([O-])(=O)C3=NN(C)C=C3)C=CN=C12)C4=CC5=C(CCN5C6CC6)C=C4] | 2400 ± 2260 | 13.9 (≈ 30 µM) | 7610 ± 10200 | 819 | 1 | – | – | –
Cn1ccc([S+](=O)([O-])Nc2ccnc3c2c(-c2ccc4ccn(C)c4c2)cn3C2CC2)n1 [NCGC00650045, CN1C=CC(=N1)[S+]([O-])(=O)NC2=C3C(=CN(C4CC4)C3=NC=C2)C5=CC6=C(C=CN6C)C=C5] | > 20000 | 2.2 (≈ 4.93 µM) | – | – | 1 | – | – | –
CC(n1cc(-c2ccc3c(c2)N(C)CC3)c2c(N[S+](=O)([O-])c3ccn(C)n3)ccnc21)C(F)(F)F (stereo not shown) [NCGC00600887, CC(N1C=C(C2=C(N[S+]([O-])(=O)C3=NN(C)C=C3)C=CN=C12)C4=CC5=C(CCN5C)C=C4)C(F)(F)F] | 541 | 21.9 (≈ 43.4 µM) | 872 | 629 | 3.3 | – | – | –
O=C1CCc2ccc(-c3cn(C4CC4)c4nccc(N[S+](=O)([O-])c5ccn(C6CC6)n5)c34)cc21 [NCGC00650070, [O-][S+](=O)(NC1=C2C(=CN(C3CC3)C2=NC=C1)C4=CC5=C(CCC5=O)C=C4)C6=NN(C=C6)C7CC7] | 966 | 38.5 (≈ 81.3 µM) | – | 256 | 13.2 | – | – | –
Cn1ccc([S+](=O)([O-])Nc2ccnc3c2c(-c2ccc4c(c2)N(C2CC2)CC4)cn3CC2CCCCC2)n1 [NCGC00650102, CN1C=CC(=N1)[S+]([O-])(=O)NC2=C3C(=CN(CC4CCCCC4)C3=NC=C2)C5=CC6=C(CCN6C7CC7)C=C5] | 2050 | 5.3 (≈ 9.99 µM) | 4070 ± 5430 | 160 | – | – | – | –
O=C1N(C2CC2)c2cc(-c3cn(C4CC4)c4nccc(N[S+](=O)([O-])c5ccn(C6CC6)n5)c34)ccc2C12CC2 [NCGC00650041, [O-][S+](=O)(NC1=C2C(=CN(C3CC3)C2=NC=C1)C4=CC5=C(C=C4)C6(CC6)C(=O)N5C7CC7)C8=NN(C=C8)C9CC9] | – | 2 (≈ 3.7 µM) | 180 | 615 | 6.2 | – | – | –
CC(C)n1cc(-c2ccc3c(c2)N(C)CC3)c2c(N[S+](=O)([O-])c3ccn(C)n3)ccnc21 [NCGC00507962, CC(C)[N]1C=C(C2=CC3=C(CCN3C)C=C2)C4=C(N[S+]([O-])(=O)C5=N[N](C)C=C5)C=CN=C14] | – | 36.7 (≈ 81.5 µM) | – | 1030 | 1.1 | – | – | –
O=C1CCc2ccc(-c3cn(C4CC4)c4nccc(N[S+](=O)([O-])c5ccn(C6CC6)n5)c34)cc21 [NCGC00650069, [O-][S+](=O)(NC1=C2C(=CN(C3CC3)C2=NC=C1)C4=CC5=C(CCC5=O)C=C4)C6=NN(C=C6)C7CC7] | 1780 | – | – | – | – | 30 (≈ 63.4 µM) | 188.5 1e-6 cm/s | 16
O=[S+]([O-])(Nc1ccnc2c1c(-c1ccc3c(c1)C(O)CC3)cn2C1CC1)c1ccn(C2CC2)n1 (stereo not shown) [NCGC00650064, OC1CCC2=C1C=C(C=C2)C3=CN(C4CC4)C5=NC=CC(N[S+]([O-])(=O)C6=NN(C=C6)C7CC7)=C35] | – | 35.9 (≈ 75.5 µM) | > 20000 | 386 | 6.9 | – | – | –

The next lines start with results.

IC50 [1] [nM] | solubility [2, 6] [µg/mL] | IC50 [3] [nM] | Papp [4] [×10⁻⁶ cm/s] | half-life [5] [min] | Compound | solubility [2] [µg/mL] | Permeability(pH7.4) (PAMPA_Pion_Lipid 1e-6 cm/s) [4] | Rat_SD/Microsomes t1/2 (m) [5] [m]
1530 ± 1360 | > 64 | 7520 ± 10500 | 191 | 4.5 | Cn1ccc([S+](=O)([O-])Nc2ccnc3c2c(-c2ccc4c(c2)NCC4)cn3C2CC2)n1 [NCGC00601851, CN1C=CC(=N1)[S+]([O-])(=O)NC2=C3C(=CN(C4CC4)C3=NC=C2)C5=CC6=C(CCN6)C=C5] | – | – | –
2420 | 26.2 (≈ 47.8 µM) | 4430 | 1940 | 5.7 | Cn1ccc([S+](=O)([O-])Nc2ccnc3c2c(-c2ccc4c(c2)C(NC(=O)OC(C)(C)C)CC4)cn3C2CC2)n1 (stereo not shown) [NCGC00650021, CN1C=CC(=N1)[S+]([O-])(=O)NC2=C3C(=CN(C4CC4)C3=NC=C2)C5=CC6=C(CCC6NC(=O)OC(C)(C)C)C=C5] | – | – | –
3020 ± 2960 | 1.4 (≈ 2.87 µM) | 360 ± 510 | 1230 | 1.1 | Cn1ccc([S+](=O)([O-])Nc2ccnc3c2c(-c2ccc4c(c2)N(C2CC2)CC4)cn3CC2CC2)n1 [NCGC00650063, CN1C=CC(=N1)[S+]([O-])(=O)NC2=C3C(=CN(CC4CC4)C3=NC=C2)C5=CC6=C(CCN6C7CC7)C=C5] | – | – | –
447 | 24 (≈ 53.5 µM) | > 20000 | 13 | 14.5 | Cn1ccc([S+](=O)([O-])Nc2ccnc3c2c(-c2ccc4c(c2)C(N)CC4)cn3C2CC2)n1 (stereo not shown) [NCGC00650025, CN1C=CC(=N1)[S+]([O-])(=O)NC2=C3C(=CN(C4CC4)C3=NC=C2)C5=CC6=C(CCC6N)C=C5] | – | – | –
15200 | 22.9 (≈ 44.5 µM) | 4210 ± 550 | 249 | > 30 | Cn1ccc([S+](=O)([O-])Nc2ccnc3c2c(-c2ccc4c(c2)N(C2CC2)C(=O)C42CC2)cn3C2CC2)n1 [NCGC00650040, CN1C=CC(=N1)[S+]([O-])(=O)NC2=C3C(=CN(C4CC4)C3=NC=C2)C5=CC6=C(C=C5)C7(CC7)C(=O)N6C8CC8] | – | – | –
1610 | > 68 | 2290 ± 3230 | 4 | 17.9 | CNC1CCc2ccc(-c3cn(C4CC4)c4nccc(N[S+](=O)([O-])c5ccn(C)n5)c34)cc21 (stereo not shown) [NCGC00650057, CNC1CCC2=C1C=C(C=C2)C3=CN(C4CC4)C5=NC=CC(N[S+]([O-])(=O)C6=NN(C)C=C6)=C35] | – | – | –
4250 | > 66 | 2340 ± 2320 | 72.8 | 11.8 | Cn1ccc([S+](=O)([O-])Nc2ccnc3c2c(-c2ccc4c(c2)C(=O)CC4)cn3C2CC2)n1 [NCGC00650061, CN1C=CC(=N1)[S+]([O-])(=O)NC2=C3C(=CN(C4CC4)C3=NC=C2)C5=CC6=C(CCC6=O)C=C5] | – | – | –
3930 | 8.2 (≈ 15.3 µM) | > 20000 | – | 4.6 | Cn1ccc([S+](=O)([O-])Nc2ccnc3c2c(-c2ccc4c(c2)N(C(=O)OC(C)(C)C)CC4)cn3C2CC2)n1 [NCGC00650103, CN1C=CC(=N1)[S+]([O-])(=O)NC2=C3C(=CN(C4CC4)C3=NC=C2)C5=CC6=C(CCN6C(=O)OC(C)(C)C)C=C5] | – | – | –
3100 ± 2590 | 1 (≈ 2.31 µM) | > 20000 | 1420 | 0.9 | Cn1ccc([S+](=O)([O-])Nc2ccnc3c2c(-c2ccc4c(c2)CCC4)cn3C2CC2)n1 [NCGC00650026, CN1C=CC(=N1)[S+]([O-])(=O)NC2=C3C(=CN(C4CC4)C3=NC=C2)C5=CC6=C(CCC6)C=C5] | – | – | –
> 20000 | 31.1 (≈ 69.2 µM) | 19000 | 182 | 18.2 | Cn1ccc([S+](=O)([O-])Nc2ccnc3c2c(-c2ccc4c(c2)C(O)CC4)cn3C2CC2)n1 (stereo not shown) [NCGC00650073, CN1C=CC(=N1)[S+]([O-])(=O)NC2=C3C(=CN(C4CC4)C3=NC=C2)C5=CC6=C(CCC6O)C=C5] | – | – | –
– | > 66 | 1380 ± 1160 | 171 | 1.7 | CN1CCc2ccc(-c3cn(C4CC4)c4nccc(N[S+](=O)([O-])c5ccn(C)n5)c34)cc21 [NCGC00600897, CN1C=CC(=N1)[S+]([O-])(=O)NC2=C3C(=CN(C4CC4)C3=NC=C2)C5=CC6=C(CCN6C)C=C5] | – | – | –
